Reference: ChEMBL document CHEMBL3988442, “University of Dundee, Small-Polar-MMV Screening Library” (2021)

Key:
[1] = microbe, parasite or virus in culture; conditions: Mycobacterium tuberculosis, 96 h, read-out: pIC50 (converted)
[2] = microbe, parasite or virus in culture; conditions: Mycobacterium tuberculosis, 72 h, read-out: pIC50 (converted)

Row | SMILES | IC50 [1] [µM] | IC50 [2] [µM]
1 | CC(C)Cc1noc(CNc2cc3c(cc2Cl)OCCCO3)n1 | 27.1 | > 50.1
2 | N#Cc1nc(-c2ccccc2)oc1NCCCO | > 501 | 243
3 | CCC(O)CNc1ccc(-c2nc(CC(C)C)no2)cn1 (stereo unspecified) | 26.7 | 44.9
4 | CCCc1nc2c(c(C)c(C)n2Cc2ccncc2)c(N)c1CC | > 50.1 | > 50.1
5 | Cc1ccc(CNC(=O)c2ccc(F)cc2)o1 | 47.3 | 19.6
6 | CS(=O)(=O)NCc1ccnc(Oc2ccc(F)cc2)c1 | > 501 | 154
7 | COc1ccccc1OCCn1c(C)c(C)oc1=O | > 50.1 | > 50.1
8 | CC(=O)c1cccc(OCC(=O)NC2CCCC2)c1 | 182 | 290
9 | CC1(c2ncc(CN3CCN(c4ncccn4)CC3)cn2)CCCCO1 (stereo unspecified) | > 50.1 | > 50.1
10 | COCCC(=O)NCC(C)c1ccc(F)c(F)c1 (stereo unspecified) | > 501 | > 501
11 | COc1ccc2nnc(C(=O)NCC3CCCC3)nc2c1 | > 50.1 | 12.3
12 | CCC1(CC)CCCN(C(=O)CS(=O)(=O)CC)CC1 | 50.9 | 72.7
13 | CC(C)c1noc(CN2CCN(C(=O)c3ccc(F)cc3)CC2)n1 | > 50.1 | > 50.1
14 | COc1ccc(NC(=O)COc2ccccc2F)cn1 | > 501 | 213
15 | COCCOCc1cccc(NC(=O)NC(C)C)c1 | > 501 | > 501
16 | NCc1noc(-c2ccc(Cl)cc2F)n1 | 242 | 277
17 | CCOC(=O)CNc1ccc(OC)cc1 | 335 | 124
18 | Cc1cccc2[nH]cc(CCN)c12 | 229 | 124
19 | CCc1cccc2c1N(C(=O)CNC)CC2 | > 501 | 367
20 | CN1CCOC(CNCCOc2cccc(C#N)c2)C1 (stereo unspecified) | > 50.1 | > 50.1
21 | CC(C)(C)OC(=O)N1CCCC1CN (stereo unspecified) | 207 | 368
22 | NC(=O)CC1CCCC1 | > 501 | > 501
23 | O=C(NC1CCCc2occc21)c1cccnc1 (stereo unspecified) | 79.9 | 57.8
24 | CCS(=O)(=O)N(C)CCCNc1ccc(C)c(C#N)n1 | 84.2 | 106
25 | CCCC(C)NC(=O)c1coc(C)n1 (stereo unspecified) | > 501 | > 501
26 | O=C(CC1COCCN1Cc1ccon1)c1cccs1 (stereo unspecified) | > 501 | 172
27 | Cc1nc(O)cc(CCNC(=O)C2CC(=O)N(CC(C)C)C2)n1 (stereo unspecified) | > 50.1 | > 50.1

Row | SMILES | IC50 [1] [µM] | IC50 [2] [µM]
28 | CCc1ccccc1OC1CN(C(=O)c2ccnc(OC)c2)C1 | 43.4 | 21.3
29 | O=C(CSc1cnn[nH]1)Nc1ccc(Cl)cn1 | > 501 | 99.4
30 | OCCOCCN1CCC(=Cc2ccccc2)CC1 | 242 | 203
31 | CNC(=O)c1cccc(CNC(C)c2ccc(F)cc2N(C)C)c1 (stereo unspecified) | > 50.1 | > 50.1
32 | COC(=O)CNc1ccccc1 | 123 | 463
33 | CN(CCOc1ccc(Cl)cc1)C(=O)C(C)(C)CN | 276 | 216
34 | N#Cc1cnc2cc(F)cc(F)c2c1NC1CCN(CC(N)=O)CC1 | > 50.1 | > 50.1
35 | OCCNCCNCc1cccc(Cl)c1Cl | 33.1 | 199
36 | CC(C)(C)OCCOc1ccc(OCCO)cc1 | 161 | 101
37 | COCCNC(=O)Nc1ccc(OC(F)F)c(F)c1 | 253 | 273
38 | NCCCC(=O)N(Cc1ccccc1F)C1CCC1 | > 501 | 231
39 | CN(C)CCC(=O)c1ccc(F)cc1 | 177 | 92.2
40 | NCCNS(=O)(=O)c1ccc(F)c(C(F)(F)F)c1 | > 501 | 476
41 | Cc1nc(-c2ccc(NCCc3ccc(O)cc3)nc2)[nH]c(=O)c1C | 32.1 | 42.1
42 | Cc1n[nH]cc1CNCCNc1ncc(Cl)cc1Cl | > 501 | 82.1
43 | CCOc1ccc(CSc2nnc[nH]2)cc1 | 198 | 218
44 | CN(C)c1ccc(Br)c(S(=O)(=O)NC2CCNC2)c1 (stereo unspecified) | 263 | 232
45 | Cc1nc(C2CCCN(C(=O)c3cc4c(s3)CCCC4)C2)no1 (stereo unspecified) | 11.7 | 40.8
46 | OCCN1CCC2(CCc3cc(-c4ccoc4)ccc32)CC1 | 24.1 | 23.5
47 | CNc1cc(CN(C)Cc2cccs2)ccn1 | 276 | 276
48 | CCCNc1nc(CS(=O)(=O)c2ccccc2)cs1 | > 50.1 | > 50.1
49 | Cc1ccc2nc(-c3cnc(N)nc3)c(C)c(C(=O)N(C)C)c2c1 | > 50.1 | > 50.1
50 | COc1ccnc(N2CCCNCC2)n1 | > 501 | 229
51 | C=C(C)CCOC(=O)c1ccc(CS(C)(=O)=O)cc1 | 258 | 275
52 | CC(C)OCCS(=O)(=O)N(C)Cc1ccco1 | 104 | 110
53 | CCCNc1nnc(SC2CCOC2)s1 (stereo unspecified) | 70.9 | 259
